The record followed here is patent publication US4276297A, “Pyridylaminotriazole therapeutic agents” (Pfizer Inc., priority 1979, dated 1981).

The test system of one series is gastric acid secretion. Briefly: Inhibition of pentagastrin-induced gastric acid secretion in fasted Heidenhain pouch dogs. Format: in vivo. Particulars: intravenous; for inhibition in vivo at 10 mg/kg / inhibition in vivo at 1 mg/kg / inhibition in vivo at 5 mg/kg: Canis lupus familiaris, 1.5 h, 90 minutes after start of pentagastrin infusion, lowest acid output after drug vs mean acid output immediately prior, read-out: Acid Antisecretory Activity (% Inhibition). The protocol:
The activity of the compounds of the present invention, as anti-ulcer agents, is determined by their ability to pass at least one of the following two standard biological and/or pharmacological tests, viz., (1) measuring their ability to antagonise those particular actions of histamine which are not blocked by an antihistamine such as mepyramine, i.e., a measure of their ability to block certain histamine H2 -receptor sites; and (2) measuring their ability to inhibit gastric acid secretion in the stomachs of Heidenhain pouch dogs that had previously been treated with pentagastrin in order to stimulate the secretion of said acid (in their stomachs) for these particular purposes.
The following 3-amino-5-(4-pyridyl)-1,2,4-triazole final products of Examples I-V, VII-XII, XIV-XVI, XVIII-XX, XXII-XXIII, XXV-XXVI, XXVIII and XXXII, respectively, were tested for antiulcer activity in terms of their ability to inhibit gastric acid secretion in groups of fasted Heidenhain pouch dogs. No anesthetic was used in this study. The animals were first administered pentagastrin in order to stimulate acid output in their stomachs by the continuous infusion of said drug into a superified leg vein at doses earlier determined to stimulate near maximal acid output from the gastric pouch. Gastric juice was then collected at 30-minute intervals following the start of a pentagastrin infusion amd measured to the nearest one-tenth of a […] (0.1 ml.). Ten collections were taken for each dog during an experiment. Acid concentration was then determined by titrating 1.0 ml. of gastric juice to a pH value of pH 7.4 with 0.1 N aqueous sodium hydroxide, using an Autoburette and a glass electrode pH meter (Radiometer) for these purposes. The animals were then administered the test compounds at 10, 5.0 and 1.0 mg./kg., respectively, or the control vehicle alone, via the intravenous route of administration,at 90 minutes following the start of the pentagastrin infusion. Gastric antisecretory effects were thereafter calculated by comparing the lowest acid output after drug administration with the mean acid output immediately prior to same and the results obtained in this manner are reported in the following table, where the entries given for each individual compound are expressed in terms of percent inhibition (%) at the dose level indicated: […]

Series [1] can be described thus: Signs of toxic side effects in Heidenhain pouch dogs after intravenous dosing. The format is in vivo. Particulars: 1.0 mg./kg. to 10 mg./kg. The text has this:
As previously indicated, the 3-amino-5-(4-pyridyl)-1,2,4-triazole compounds of this invention are all readily adapted to therapeutic use as histamine H2 -receptor inhibitors for the control of peptic ulcers, especially in view of their ability to inhibit the secretion of gastric acid in the body to a statistically significant degree. […] The other compounds of this invention also cause similar results. Furthermore, all the herein described compounds of this invention can be administered orally, for the present purposes at hand, without causing any significant untoward pharmacological side reactions to occur in the subject to whom they are so administered. In general, these compounds are ordinarily administered at dosage levels ranging from about 0.5 mg. to about 50 mg. per kg. of body weight per day, although variations will necessarily occur depending upon the condition and individual response of the subject being treated and the particular type of pharmaceutical formulation chosen.

Consider `CCCCCCCCCCNc1cc(-c2nc(N)n[nH]2)ccn1` [Example III, 3-amino-5-{2-[N-mono(n-decyl)amino]-4-pyridyl}-1,2,4-triazole], for which the inhibition in vivo at 10 mg/kg in the series with gastric acid secretion turned out to be 14%.

With `CCCNc1cc(-c2nc(N)n[nH]2)ccn1` [Example I, 3-amino-5-{2-[N-mono(n-propyl)amino]-4-pyridyl}-1,2,4-triazole], in the series with gastric acid secretion, the inhibition in vivo at 1 mg/kg came to 33% and the inhibition in vivo at 5 mg/kg amounted to 64%.

As for `CCN(C)c1cc(-c2nc(N)n[nH]2)ccn1` [Example IX, 3-amino-5-[2-(N-methyl-N-ethylamino)-4-pyridyl]-1,2,4-triazole], the inhibition in vivo at 1 mg/kg in the series with gastric acid secretion turned out to be 53%.

Take `CCNc1cc(-c2nc(NC)n[nH]2)ccn1` [Example XXVI, 3-(N-monomethylamino)-5-[2-(N-monoethylamino)-4-pyridyl]-1,2,4-triazole]: in the series on gastric acid secretion, the inhibition in vivo at 1 mg/kg turned out to be 32% and the inhibition in vivo at 5 mg/kg amounted to 64%.

`CN(C)c1cc(-c2nc(N)n[nH]2)ccn1` [Example VIII, 3-amino-5-[2-(N,N-dimethylamino)-4-pyridyl]-1,2,4-triazole]: in the series with gastric acid secretion, the inhibition in vivo at 1 mg/kg was 48%, the inhibition in vivo at 5 mg/kg stood at 80% and the inhibition in vivo at 10 mg/kg was 96%.

`CCNc1cc(-c2nc(N)n[nH]2)ccn1` [Example XX, 3-amino-5-[2-(N-monoethylamino)-4-pyridyl]-1,2,4-triazole]: in the series on gastric acid secretion, the inhibition in vivo at 1 mg/kg was found to be 51%, the inhibition in vivo at 5 mg/kg came out at 89% and the inhibition in vivo at 10 mg/kg was determined as 93%. Also, in the series on gastric acid secretion (1.0 mg./kg. to 10 mg./kg., Heidenhain pouch dogs), the “inhibit the pentagastrin-induced secretion of gastric acid (in words)” value is “consistently inhibit the pentagastrin-induced secretion of gastric acid from stomachs of Heidenhain pouch dogs to a significantly high degree”. Moreover, the “signs of toxic side effects” value in series [1] is “without showing any substantial signs of toxic side effects”.

Take `Nc1cc(-c2nc(N)n[nH]2)ccn1` [Example XVIII, 3-amino-5-(2-aminopyridyl)-1,2,4-triazole monohydrate]: in the series on gastric acid secretion, the inhibition in vivo at 1 mg/kg was found to be 30%, the inhibition in vivo at 5 mg/kg was determined as 86% and the inhibition in vivo at 10 mg/kg stood at 94%.

As for `Nc1n[nH]c(-c2ccnc(NCc3ccccc3)c2)n1` [Example XIV, 3-amino-5-[2-(N-monobenzylamino)-4-pyridyl]-1,2,4-triazole], in the series with gastric acid secretion, the inhibition in vivo at 1 mg/kg is 21% and the inhibition in vivo at 10 mg/kg was 72%.

Regarding `COCCNc1cc(-c2nc(N)n[nH]2)ccn1` [Example VII, 3-amino-5-{2-[N-mono(β-methoxyethyl)amino]-4-pyridyl}-1,2,4-triazole], the inhibition in vivo at 1 mg/kg with gastric acid secretion came out at 11%.

For `Cc1ccc(CNc2cc(-c3nc(N)n[nH]3)ccn2)cc1` [Example XVI], the inhibition in vivo at 5 mg/kg with gastric acid secretion amounted to 33%.

With `Nc1n[nH]c(-c2ccnc(NCCO)c2)n1` [Example V, 3-amino-5-{2-[N-mono(β-hydroxyethyl)amino]-4-pyridyl}-1,a,4-triazole], in the series on gastric acid secretion, the inhibition in vivo at 1 mg/kg was 23% and the inhibition in vivo at 10 mg/kg was 34%.

Regarding `Nc1n[nH]c(-c2ccnc(NCc3ccc(Cl)cc3)c2)n1` [Example XV, 3-amino-5-{2-[N-mono(p-chlorobenzyl)amino]-4-pyridyl}-1,2,4-triazole], in the series on gastric acid secretion, the inhibition in vivo at 1 mg/kg came to 21% and the inhibition in vivo at 10 mg/kg was 62%.

For the molecule `CN(Cc1ccccc1)c1cc(-c2nc(N)n[nH]2)ccn1` [Example XXXII, 3-amino-5-[2-(N-methyl-N-benzylamino)-4-pyridyl]-1,2,4-triazole], the inhibition in vivo at 10 mg/kg in the series on gastric acid secretion came out at 25%.

Turning to `CCCCNc1cc(-c2nc(N)n[nH]2)ccn1` [Example XXII, 3-amino-5-{2-[N-mono(n-butyl)amino]-4-pyridyl}-1,2,4-triazole], the inhibition in vivo at 1 mg/kg in the series on gastric acid secretion stood at 29%.

Turning to `CNc1cc(-c2nc(N)n[nH]2)ccn1` [Example XIX, 3-amino-5-[2-(N-monomethylamino)-4-pyridyl]-1,2,4-triazole], the inhibition in vivo at 1 mg/kg in the series on gastric acid secretion is 50%.

For the molecule `CC(C)Nc1cc(-c2nc(N)n[nH]2)ccn1` [Example XXIII, 3-amino-5-[2-(N-monoisopropylamino)-4-pyridyl]-1,2,4-triazole], in the series with gastric acid secretion, the inhibition in vivo at 1 mg/kg stood at 35% and the inhibition in vivo at 5 mg/kg is 52%.

For the molecule `CCN(CC)c1cc(-c2nc(N)n[nH]2)ccn1` [Example X, 3-amino-5-[2-(N,N-diethylamino)-4-pyridyl]-1,2,4-triazole], the inhibition in vivo at 5 mg/kg in the series with gastric acid secretion turned out to be 68%.

Take `CCNc1cc(-c2nc(NCC)n[nH]2)ccn1` [Example XI, 3-(monoethylamino)-5-[2-(N-monoethylamino)-4-pyridyl]-1,2,4-triazole]: the inhibition in vivo at 1 mg/kg with gastric acid secretion stood at 38%.

As to `Nc1n[nH]c(-c2ccnc(NCCc3ccccc3)c2)n1` [Example XII, 3-amino-5-{2-[N-mono(β-phenylethyl)amino]-4-pyridyl}-1,2,4-triazole], in the series on gastric acid secretion, the inhibition in vivo at 1 mg/kg was found to be 18% and the inhibition in vivo at 10 mg/kg is 50%.

`Nc1n[nH]c(-c2ccnc(NCC(F)(F)F)c2)n1` [Example XXV, 3-amino-5-{2-[N-mono(2,2,2-trifluoroethyl)amino]-4-pyridyl}-1,2,4-triazole]: the inhibition in vivo at 1 mg/kg in the series with gastric acid secretion was determined as 10%.

Consider `CCCCCCNc1cc(-c2nc(N)n[nH]2)ccn1` [Example II, 3-amino-5-{2-[N-mono(n-hexyl)amino]-4-pyridyl}-1,2,4-triazole], for which, in the series with gastric acid secretion, the inhibition in vivo at 1 mg/kg was determined as 0% and the inhibition in vivo at 10 mg/kg was found to be 40%.

For `C=CCNc1cc(-c2nc(N)n[nH]2)ccn1` [Example IV], the inhibition in vivo at 1 mg/kg in the series with gastric acid secretion is 31%.

As for `Cc1ccc(CNc2cc(-c3nc(N)n[nH]3)ccn2)cc1C` [Example XXVIII, 3-amino-5-{2-[N-mono(3',4'-dimethylbenzyl)amino]-4-pyridyl}-1,2,4-triazole], the inhibition in vivo at 5 mg/kg in the series on gastric acid secretion stood at 49%.
